Test results taken from patent US20250206779A1, “ANGIOTENSIN-(1-9) ANALOGUE BASED ON D AMINO ACIDS, PHARMACEUTICAL COMPOSITIONS AND USES THEREOF” (UNIVERSIDAD DE CHILE, priority 2021, published 2025).
Where a SMILES comes first, the peptide text is derived from it. [ ]: non-standard residue; d: D form.

Tests used:
[1] = test system: adult rat cardiac fibroblasts; test: Cardiac fibroblast proliferation, cell count in Neubauer chamber; format: cell-based; conditions: DMEM F-12 5% FBS, 24 h, trypan blue cell count
Description: Male Sprague-Dawley rats (250-300 g) were anesthetized with ketamine-xylazine (66 and 1.6 mg/kg i.p., respectively). Adult rat cardiac fibroblasts were isolated by retrograde aortic perfusion. Briefly, hearts were digested with collagenase type B solution for 1 h, and cells were centrifuged at 500 rpm for 2 min. The supernatant, mainly adult rat cardiac fibroblasts, was centrifuged at 1000 rpm for 10 min, resuspended in Dulbecco's Modified Eagle Medium: Nutrient Mixture F-12 (DMEM F-12) plus 15% fetal bovine serum (FBS) and then seeded in nontreated culture dishes during 3 h. Cells were washed with phosphate buffered saline to eliminate debris and nonadherent cells. Adult rat cardiac fibroblasts were used at passage one and seeded on 60 mm cell culture dishes in DMEM F-12 plus 10% FBS and incubated at […] for 3 h. To synchronize cells, they were washed and incubated in DMEM F-12 (without serum, 0% FBS) for 24 h before experimentation. Cell proliferation was determined in cardiac fibroblasts incubated for 24 h with and without retro-inverse angiotensin-(1-9) in DMEM F-12 5% FBS. Cells were trypsinized and cell number was determined using trypan blue method in a Neubauer chamber.

[2] = test system: isolated hearts from adult male Sprague-Dawley rats; test: Infarct size in isolated hearts subjected to ischemia/reperfusion (Langendorff, TTC staining); parameters: species or system rat; conditions: 50 nM peptide in reperfusion, 30 min global ischemia, ex vivo
Description: The cardioprotective effects of retro-inverse angiotensin-(1-9) were also investigated in isolated hearts from adult male Sprague-Dawley rats (250-300 g) subjected to ischemia/reperfusion (I/R) using a Langendorff procedure. Rats were anesthetized with pentobarbital [80 mg/kg intraperitoneally (i.p.)] and heparin 100 U/kg was injected into the right atria. Hearts were rapidly harvested and perfused through the aorta with Krebs-Henseleit solution containing NaCl 128.3 mM, KCl 4.7 mM, CaCl2 1.35 mM, MgSO4 1.1 mM, NaHCO3 20.2 mM, NaH2PO4 0.4 mM and glucose 11.1 mM, pH 7.4 (equilibrated with a gas mixture of 95% O2 and 5% CO2 at 37° C.), using a peristaltic pump (Gilson Miniplus 3, France). A latex balloon connected to a pressure transducer was placed through the left atrium and mitral valve into the left ventricle. The balloon was filled with saline to determine isovolumetric intraventricular pressure. Perfusion flow was 10-14 mL/min. Hearts were placed in a heated chamber and paced at 240-300 beats/min with platinum electrodes, using a Grass stimulator (pulses of 5V, 1 ms). […] The infarct size was determined using 2,3,5-triphenyltetrazolium chloride (TTC) staining. […]

[3] = Stability in human serum determined by HPLC; format: in vitro ADME; conditions: male, 48 h incubation, 37° C., read-out: degradation after incubation with human serum
Description: The retro-inverse peptides were dissolved in PBS to obtain a final concentration of 1 mM. From this stock, an aliquot of 50 μL was taken and diluted to 450 μL of human serum (Sigma Aldrich from human male AB plasma, USA origin, sterile-filtered) at 37° C. under agitation, to obtain an initial concentration of […] and incubated for 48 h. Aliquots of 50 μL were extracted at 0, 5, 10 min and 1, 3, 6, 24 and 48 h and added to 200 μL of methanol at 4° C. for 30 min to precipitate serum proteins. The samples were then centrifuged at 13,000 g in Hermle Cooling Centrifuge Z 326 K 311.00 V01 at 4° C. for 30 min. The supernatants (approximately 200 μL) were obtained, placed in vials, and then analyzed by HPLC. All analyzes were performed on the Perkin Elmer auto sampler flexo HPLC, using a reverse phase 4.6×100 mm column with a particle size of […] (Waters XBridge Peptide BEH C18 Column). Mobile phase A was 100% acetonitrile and phase B was TFA 0.0004% in Milli-Q water. The initial composition of eluent was 5% A and 95% B for 1 min and then a linear gradient to reach 100% A in 19 min and then return to the initial composition in 4 min, with a total run time of 25 min. The eluent flow was 0.9 mL/min and the temperature of the column was adjusted to 26° C. L measurement was performed at a UV signal of 220 nm wavelength. Where 50 μL was injected per sample. Peptides were identified based on their retention time in the respective chromatogram obtained in the Chromera-HPLC flexar program.

SMILES: CC[C@@H](C)[C@@H](NC(=O)[C@@H](Cc1c[nH]cn1)NC(=O)[C@H]1CCCN1C(=O)[C@@H](Cc1ccccc1)NC(=O)[C@H](N)Cc1c[nH]cn1)C(=O)N[C@H](Cc1ccc(O)cc1)C(=O)N[C@@H](C(=O)N[C@H](CCCNC(=N)N)C(=O)N[C@H](CC(=O)O)C(=O)O)C(C)C [retro-inverse angiotensin-(1-9), NH2-^DH^DF^DP^DH^DI^DY^DV^DR^DD-COOH] (H-[dH][dF][dP][dH][dI][dY][dV][dR][dD]-OH)
- fibroblast proliferation [1]: inhibited fibroblast proliferation
- decrease of infarct size [2]: around 70%
- metabolised at 48 h, 20 μM [3]: < 20%
